According to ChEMBL document CHEMBL1124113, “Melanin concentrating hormone analogues: contraction of the cyclic structure. 1. Agonist activity” (J Med Chem, 1988):
Bridge positions count the residues as written; N and C are the ends. Peptide text beside a SMILES is read from it.

Experiments:
[1] = system: melanocortin receptor (frog); assay: Melanosome dispersion (skin darkening) within melanocytes (Alpha-MSH-like activity), measured on tetrapod skin; e =Inactive at 10e-5
[2] = system: Melanin-concentrating hormone receptor (Synbranchus marmoratus); assay: Melanin concentrating hormone(MCH) activity, causes melanosome aggregation within integumental fish melanocytes and lightening of the skin; d = Inactive at 10e-6 M
[3] = system: melanocortin receptor (frog); assay: Melanosome dispersion (skin darkening) within melanocytes (Alpha-MSH-like activity), measured on tetrapod skin; e = Inactive at 10e-5
[4] = system: melanocortin receptor (frog); assay: Melanosome dispersion (skin darkening) within melanocytes (Alpha-MSH-like activity), measured on tetrapod skin; Inactive at 10e-5
[5] = system: Melanin-concentrating hormone receptor (Synbranchus marmoratus); assay: Melanin concentrating hormone(MCH) activity, causes melanosome aggregation within integumental fish melanocytes and lightening of the skin; d = Inactive at 10e-6 M; remark: listed apart in the source

EC50 [2] | Compound | also measured
Not Active | CSCC[C@H](NC(=O)[C@H](C)N)C(=O)N[C@H]1CSSC[C@@H](C(=O)N[C@@H](Cc2c[nH]c3ccccc23)C(=O)N[C@@H](CCC(=O)O)C(=O)N[C@H](C(=O)O)C(C)C)NC(=O)[C@@H]2CCCN2C(=O)[C@H](CCCN=C(N)N)NC(=O)[C@H](Cc2ccc(O)cc2)NC(=O)[C@H](C(C)C)NC(=O)[C@H](CCCN=C(N)N)NC(=O)CNC1=O (H-AMCGRVYRPCWEV-OH; disulfide 3-10) | EC50 [1]: Not Active
 | CSCC[C@H](NC(=O)[C@H](C)N)C(=O)N[C@H](C(=O)N[C@H]1CSSC[C@@H](C(=O)N[C@@H](Cc2c[nH]c3ccccc23)C(=O)N[C@@H](CCC(=O)O)C(=O)N[C@H](C(=O)O)C(C)C)NC(=O)[C@@H]2CCCN2C(=O)[C@H](CCCN=C(N)N)NC(=O)[C@H](Cc2ccc(O)cc2)NC(=O)[C@H](C(C)C)NC(=O)[C@H](CCCN=C(N)N)NC1=O)C(C)C (H-AMVCRVYRPCWEV-OH; disulfide 4-10) | EC50 [3]: Not Active
Not Active | CSCC[C@H](NC(=O)[C@H](C)N)C(=O)N[C@H](C(=O)NCC(=O)N[C@@H](CCCN=C(N)N)C(=O)N[C@H]1CSSC[C@@H](C(=O)N[C@@H](Cc2c[nH]c3ccccc23)C(=O)N[C@@H](CCC(=O)O)C(=O)N[C@H](C(=O)O)C(C)C)NC(=O)[C@@H]2CCCN2C(=O)[C@H](CCCN=C(N)N)NC(=O)[C@H](Cc2ccc(O)cc2)NC1=O)C(C)C (H-AMVGRCYRPCWEV-OH; disulfide 6-10) | 
Not Active | CC(C)[C@H](NC(=O)[C@H](CCC(=O)O)NC(=O)[C@H](Cc1c[nH]c2ccccc12)NC(=O)[C@@H]1CSSC[C@H](N)C(=O)NCC(=O)N[C@@H](CCCN=C(N)N)C(=O)N[C@@H](C(C)C)C(=O)N[C@@H](Cc2ccc(O)cc2)C(=O)N[C@@H](CCCN=C(N)N)C(=O)N2CCC[C@H]2C(=O)N1)C(=O)O (H-CGRVYRPCWEV-OH; disulfide 1-8) | 
 | CC(C)[C@H](NC(=O)[C@H](CCC(=O)O)NC(=O)[C@H](Cc1c[nH]c2ccccc12)NC(=O)[C@@H]1CSSC[C@H](N)C(=O)N[C@@H](CCCN=C(N)N)C(=O)N[C@@H](C(C)C)C(=O)N[C@@H](Cc2ccc(O)cc2)C(=O)N[C@@H](CCCN=C(N)N)C(=O)N2CCC[C@H]2C(=O)N1)C(=O)O (H-CRVYRPCWEV-OH; disulfide 1-7) | EC50 [4]: Not Active
 | CC(C)[C@H](NC(=O)[C@H](CCC(=O)O)NC(=O)[C@H](Cc1c[nH]c2ccccc12)NC(=O)[C@@H]1CSSC[C@H](N)C(=O)N[C@@H](Cc2ccc(O)cc2)C(=O)N[C@@H](CCCN=C(N)N)C(=O)N2CCC[C@H]2C(=O)N1)C(=O)O (H-CYRPCWEV-OH; disulfide 1-5) | EC50 [4]: Not Active
Not Active | CSCC[C@H](NC(=O)[C@H](C)NC(=O)[C@H](CCCN=C(N)N)NC(=O)[C@H](CCSC)NC(=O)[C@@H](NC(=O)[C@@H](N)CC(=O)O)[C@@H](C)O)C(=O)N[C@H]1CSSC[C@@H](C(=O)N[C@@H](Cc2c[nH]c3ccccc23)C(=O)N[C@@H](CCC(=O)O)C(=O)N[C@H](C(=O)O)C(C)C)NC(=O)[C@@H]2CCCN2C(=O)[C@H](CCCN=C(N)N)NC(=O)[C@H](Cc2ccc(O)cc2)NC(=O)[C@H](C(C)C)NC(=O)[C@H](CCCN=C(N)N)NC(=O)CNC1=O (H-DTMRAMCGRVYRPCWEV-OH; disulfide 7-14) | 
Not Active | CSCC[C@H](NC(=O)[C@H](C)NC(=O)[C@H](CCCN=C(N)N)NC(=O)[C@H](CCSC)NC(=O)[C@@H](NC(=O)[C@@H](N)CC(=O)O)[C@@H](C)O)C(=O)N[C@H](C(=O)N[C@H]1CSSC[C@@H](C(=O)N[C@@H](Cc2c[nH]c3ccccc23)C(=O)N[C@@H](CCC(=O)O)C(=O)N[C@H](C(=O)O)C(C)C)NC(=O)[C@@H]2CCCN2C(=O)[C@H](CCCN=C(N)N)NC(=O)[C@H](Cc2ccc(O)cc2)NC(=O)[C@H](C(C)C)NC(=O)[C@H](CCCN=C(N)N)NC1=O)C(C)C (H-DTMRAMVCRVYRPCWEV-OH; disulfide 8-14) | 
 | CSCC[C@H](NC(=O)[C@H](C)NC(=O)[C@H](CCCN=C(N)N)NC(=O)[C@H](CCSC)NC(=O)[C@@H](NC(=O)[C@@H](N)CC(=O)O)[C@@H](C)O)C(=O)N[C@H](C(=O)NCC(=O)N[C@@H](CCCN=C(N)N)C(=O)N[C@H]1CSSC[C@@H](C(=O)N[C@@H](Cc2c[nH]c3ccccc23)C(=O)N[C@@H](CCC(=O)O)C(=O)N[C@H](C(=O)O)C(C)C)NC(=O)[C@@H]2CCCN2C(=O)[C@H](CCCN=C(N)N)NC(=O)[C@H](Cc2ccc(O)cc2)NC1=O)C(C)C (H-DTMRAMVGRCYRPCWEV-OH; disulfide 10-14) | EC50 [5]: Not Active
